Measured values: patent US12503484B2, “Androstane derivatives with activity as pure or predominantly pure stimulators of SERCA2a for the treatment of heart failure” (Seismic Pharmaceuticals, priority 2019, dated 2025)
Structures can show the parent of a compound that is named as a salt.

Tests used:
[1] = molecular target: HMG-CoA Reductase (Homo sapiens (Human), UniProt P04035); assay: Receptor binding assay panel: HMG-CoA Reductase; assay type: biochemical
[2] = molecular target: Monoamine Oxidase MAO-A (Homo sapiens (Human), UniProt P21397); assay: Receptor binding assay panel: Monoamine Oxidase MAO-A; assay type: biochemical
[3] = molecular target: Monoamine Oxidase MAO-B (Homo sapiens (Human), UniProt P27338); assay: Receptor binding assay panel: Monoamine Oxidase MAO-B; assay type: biochemical
[4] = molecular target: Peptidase, Angiotensin Converting Enzyme (Oryctolagus cuniculus (Rabbit), UniProt P12822); assay: Receptor binding assay panel: Peptidase, Angiotensin Converting Enzyme; assay type: biochemical
[5] = molecular target: Peptidase, Renin (Homo sapiens (Human), UniProt P00797); assay: Receptor binding assay panel: Peptidase, Renin; assay type: biochemical
[6] = test system: Phosphodiesterase PDE3; assay: Receptor binding assay panel: Phosphodiesterase PDE3; assay type: biochemical, Human; settings: 10 μM
[7] = molecular target: Protein Tyrosine Kinase, ABL1 (Homo sapiens (Human), UniProt P00519); assay: Receptor binding assay panel: Protein Tyrosine Kinase, ABL1; assay type: biochemical
[8] = molecular target: Protein Tyrosine Kinase, Src (Homo sapiens (Human), UniProt P12931); assay: Receptor binding assay panel: Protein Tyrosine Kinase, Src; assay type: biochemical
[9] = molecular target: Adenosine A1 (Homo sapiens (Human), UniProt P30542); assay: Receptor binding assay panel: Adenosine A1
[10] = molecular target: Adenosine A2A (Homo sapiens (Human), UniProt P29274); assay: Receptor binding assay panel: Adenosine A2A
[11] = molecular target: Adrenergic α1B (Rattus norvegicus (Rat), UniProt P15823); assay: Receptor binding assay panel: Adrenergic α1B
[12] = molecular target: Adrenergic α2A (Homo sapiens (Human), UniProt P08913); assay: Receptor binding assay panel: Adrenergic α2A
Protocol: (§1) Radioligand binding to a panel of receptors was carried out by Eurofins on crude membrane preparations according to published procedures and by using appropriate reference standard (Eurofin, Taiwan, compound code CVie216-3 (1226840), study #TW04-0004235, quote #TW04-0004235-Q04, for Cvie Therapeutics Limited, Taiwan). […] was tested at the concentration of 10 μM.

[13] = molecular target: Adrenergic β1 (Homo sapiens (Human), UniProt P08588); assay: Receptor binding assay panel: Adrenergic β1
[14] = molecular target: Adrenergic β2 (Homo sapiens (Human), UniProt P07550); assay: Receptor binding assay panel: Adrenergic β2
[15] = molecular target: Aldosterone (Rattus norvegicus (Rat), UniProt P22199); assay: Receptor binding assay panel: Aldosterone
[16] = molecular target: Angiotensin AT2 (Homo sapiens (Human), UniProt P50052); assay: Receptor binding assay panel: Angiotensin AT2
[17] = test system: Calcium Channel L-type, Dihydropyridine; assay: Receptor binding assay panel: Calcium Channel L-type, Dihydropyridine; set-up: species or system rat; settings: 10 μM
[18] = molecular target: Dopamine D1 (Homo sapiens (Human), UniProt P21728); assay: Receptor binding assay panel: Dopamine D1
[19] = molecular target: Dopamine D2s (Homo sapiens (Human), UniProt P14416); assay: Receptor binding assay panel: Dopamine D2s
[20] = molecular target: Dopamine D3 (Homo sapiens (Human), UniProt P35462); assay: Receptor binding assay panel: Dopamine D3
[21] = molecular target: Estrogen ERα (Homo sapiens (Human), UniProt P03372); assay: Receptor binding assay panel: Estrogen ERα
[22] = molecular target: Estrogen ERβ (Homo sapiens (Human), UniProt Q92731); assay: Receptor binding assay panel: Estrogen ERβ
[23] = test system: GABAA, Flunitrazepam, Central; assay: Receptor binding assay panel: GABAA, Flunitrazepam, Central; set-up: species or system rat; settings: 10 μM
Protocol: as §1

[24] = molecular target: Glucocorticoid (Homo sapiens (Human), UniProt P04150); assay: Receptor binding assay panel: Glucocorticoid
[25] = test system: Glutamate, NMDA, Phencyclidine; assay: Receptor binding assay panel: Glutamate, NMDA, Phencyclidine; set-up: species or system rat; settings: 10 μM
Protocol: as §1

[26] = molecular target: Histamine H1 (Homo sapiens (Human), UniProt P35367); assay: Receptor binding assay panel: Histamine H1
[27] = molecular target: Insulin (Rattus norvegicus (Rat), UniProt P15127); assay: Receptor binding assay panel: Insulin
[28] = molecular target: Muscarinic M2 (Homo sapiens (Human), UniProt P08172); assay: Receptor binding assay panel: Muscarinic M2
Protocol: as §1

[29] = molecular target: Muscarinic M3 (Homo sapiens (Human), UniProt P20309); assay: Receptor binding assay panel: Muscarinic M3
Protocol: as §1

[30] = molecular target: Muscarinic M5 (Homo sapiens (Human), UniProt P08912); assay: Receptor binding assay panel: Muscarinic M5
Protocol: as §1

[31] = molecular target: Nicotinic Acetylcholine α3β4 (Homo sapiens (Human), UniProt P30926+P32297); assay: Receptor binding assay panel: Nicotinic Acetylcholine α3β4
Protocol: as §1

[32] = test system: Phorbol Ester; assay: Receptor binding assay panel: Phorbol Ester; set-up: species or system mouse; settings: 10 μM
[33] = molecular target: Potassium Channel (KATP) (Cricetus cricetus (Black-bellied hamster), UniProt Q09427); assay: Receptor binding assay panel: Potassium Channel (KATP)
Protocol: as §1

[34] = molecular target: hERG potassium channel (Homo sapiens (Human), UniProt Q12809); assay: Receptor binding assay panel: Potassium Channel hERG; settings: crude membrane preparations
Protocol: as §1

[35] = molecular target: Ryanodine RyR3 (Rattus norvegicus, UniProt A0ABK0LPH6); assay: Receptor binding assay panel: Ryanodine RyR3
[36] = molecular target: Sigma σ2 (Homo sapiens (Human), UniProt Q5BJF2); assay: Receptor binding assay panel: Sigma σ2
[37] = molecular target: Sigma σ1 (Homo sapiens (Human), UniProt Q99720); assay: Receptor binding assay panel: Sigma σ1
[38] = test system: Sodium Channel, Site 2; assay: Receptor binding assay panel: Sodium Channel, Site 2; set-up: species or system rat; settings: 10 μM
[39] = in vivo; set-up: dose or concentration left out as unconfirmed; settings: rat
[40] = molecular target: CYP450, 19 (CYP19) (Homo sapiens (Human), UniProt P11511); assay: Receptor binding assay panel: CYP450, 19
CYP450, 19 (CYP19), sequence (P11511 whole entry): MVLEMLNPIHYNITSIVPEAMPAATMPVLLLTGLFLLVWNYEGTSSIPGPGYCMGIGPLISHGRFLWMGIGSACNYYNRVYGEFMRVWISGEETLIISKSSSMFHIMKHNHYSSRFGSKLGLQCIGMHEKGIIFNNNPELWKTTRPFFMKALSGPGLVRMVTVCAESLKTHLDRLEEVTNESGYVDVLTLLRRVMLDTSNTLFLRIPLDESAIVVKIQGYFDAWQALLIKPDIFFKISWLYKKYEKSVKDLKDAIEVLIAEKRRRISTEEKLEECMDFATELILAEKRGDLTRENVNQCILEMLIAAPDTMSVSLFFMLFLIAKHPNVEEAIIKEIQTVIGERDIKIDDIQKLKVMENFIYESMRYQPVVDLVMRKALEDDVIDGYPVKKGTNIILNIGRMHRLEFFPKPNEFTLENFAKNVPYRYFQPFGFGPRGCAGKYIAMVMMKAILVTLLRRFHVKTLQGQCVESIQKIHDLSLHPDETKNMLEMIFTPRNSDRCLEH

Dopamine D3, sequence (P35462 whole entry): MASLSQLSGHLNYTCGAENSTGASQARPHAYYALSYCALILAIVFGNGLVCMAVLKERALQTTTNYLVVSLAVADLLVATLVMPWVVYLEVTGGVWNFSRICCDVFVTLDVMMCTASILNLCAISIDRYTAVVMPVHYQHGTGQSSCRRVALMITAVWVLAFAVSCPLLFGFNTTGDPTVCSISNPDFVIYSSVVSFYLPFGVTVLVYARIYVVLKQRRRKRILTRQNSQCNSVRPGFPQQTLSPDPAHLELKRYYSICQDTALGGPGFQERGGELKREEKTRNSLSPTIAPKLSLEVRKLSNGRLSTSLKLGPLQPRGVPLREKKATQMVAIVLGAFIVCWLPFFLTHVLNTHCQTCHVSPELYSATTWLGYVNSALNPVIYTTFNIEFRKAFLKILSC
Adenosine A1, sequence (P30542 whole entry): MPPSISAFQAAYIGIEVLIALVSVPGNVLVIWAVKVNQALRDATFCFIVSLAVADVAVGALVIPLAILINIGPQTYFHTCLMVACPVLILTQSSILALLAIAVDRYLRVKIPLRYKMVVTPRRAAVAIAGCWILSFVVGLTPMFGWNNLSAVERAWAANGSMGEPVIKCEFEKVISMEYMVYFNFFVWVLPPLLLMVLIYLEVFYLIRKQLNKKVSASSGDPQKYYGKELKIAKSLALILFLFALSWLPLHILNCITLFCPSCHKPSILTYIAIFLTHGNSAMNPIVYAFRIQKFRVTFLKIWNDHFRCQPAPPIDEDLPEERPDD
Muscarinic M3, sequence (P20309 whole entry, looked up): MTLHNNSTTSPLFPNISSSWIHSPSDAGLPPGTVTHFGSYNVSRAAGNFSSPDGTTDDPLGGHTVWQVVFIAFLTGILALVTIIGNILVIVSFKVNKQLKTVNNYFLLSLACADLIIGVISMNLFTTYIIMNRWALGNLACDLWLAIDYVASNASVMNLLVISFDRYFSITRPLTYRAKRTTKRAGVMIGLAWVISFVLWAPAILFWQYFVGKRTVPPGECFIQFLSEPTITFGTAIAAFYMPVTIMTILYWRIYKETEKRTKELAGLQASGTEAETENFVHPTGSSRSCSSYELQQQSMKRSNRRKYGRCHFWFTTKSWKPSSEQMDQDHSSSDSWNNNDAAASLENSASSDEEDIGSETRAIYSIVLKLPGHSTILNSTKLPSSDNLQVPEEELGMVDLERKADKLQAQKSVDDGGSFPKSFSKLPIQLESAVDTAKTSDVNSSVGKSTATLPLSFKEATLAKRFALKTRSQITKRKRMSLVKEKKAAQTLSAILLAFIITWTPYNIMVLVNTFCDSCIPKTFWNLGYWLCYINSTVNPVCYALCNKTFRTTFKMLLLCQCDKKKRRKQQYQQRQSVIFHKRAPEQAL
Peptidase, Renin, sequence (P00797 67-406): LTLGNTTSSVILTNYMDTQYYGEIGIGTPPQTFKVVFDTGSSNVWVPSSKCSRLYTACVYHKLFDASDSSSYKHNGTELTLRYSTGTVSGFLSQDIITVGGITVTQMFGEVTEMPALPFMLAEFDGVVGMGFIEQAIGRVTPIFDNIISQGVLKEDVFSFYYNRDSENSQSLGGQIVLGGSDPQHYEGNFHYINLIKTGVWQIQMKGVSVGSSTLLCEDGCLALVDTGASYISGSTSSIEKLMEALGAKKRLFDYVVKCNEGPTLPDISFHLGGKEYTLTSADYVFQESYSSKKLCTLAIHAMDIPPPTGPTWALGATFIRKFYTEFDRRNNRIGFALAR
Monoamine Oxidase MAO-A, sequence (P21397 whole entry): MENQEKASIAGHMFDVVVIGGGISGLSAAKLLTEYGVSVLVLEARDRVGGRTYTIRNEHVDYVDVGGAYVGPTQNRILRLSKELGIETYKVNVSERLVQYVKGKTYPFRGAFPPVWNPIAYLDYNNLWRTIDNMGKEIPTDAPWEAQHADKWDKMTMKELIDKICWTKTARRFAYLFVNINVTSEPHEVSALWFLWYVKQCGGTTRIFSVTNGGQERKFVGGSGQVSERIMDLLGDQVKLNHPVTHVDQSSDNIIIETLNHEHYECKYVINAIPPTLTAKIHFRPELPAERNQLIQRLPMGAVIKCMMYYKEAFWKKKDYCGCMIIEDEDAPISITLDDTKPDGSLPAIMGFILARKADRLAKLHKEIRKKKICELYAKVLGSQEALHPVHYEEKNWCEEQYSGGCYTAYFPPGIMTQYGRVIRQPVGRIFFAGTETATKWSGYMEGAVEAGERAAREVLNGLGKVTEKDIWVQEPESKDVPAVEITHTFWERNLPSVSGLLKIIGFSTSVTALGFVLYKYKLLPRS
Adenosine A2A, sequence (P29274 whole entry): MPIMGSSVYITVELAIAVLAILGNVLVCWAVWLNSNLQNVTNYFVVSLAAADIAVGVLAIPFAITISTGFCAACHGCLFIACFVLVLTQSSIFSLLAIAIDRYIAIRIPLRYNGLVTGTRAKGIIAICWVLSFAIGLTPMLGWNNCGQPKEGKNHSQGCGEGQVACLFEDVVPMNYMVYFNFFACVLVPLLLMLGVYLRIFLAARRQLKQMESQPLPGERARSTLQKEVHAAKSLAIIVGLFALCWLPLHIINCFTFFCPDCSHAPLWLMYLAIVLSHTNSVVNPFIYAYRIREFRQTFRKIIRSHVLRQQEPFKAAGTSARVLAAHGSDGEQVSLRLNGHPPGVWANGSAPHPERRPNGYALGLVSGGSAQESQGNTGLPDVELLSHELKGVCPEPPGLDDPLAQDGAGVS
Protein Tyrosine Kinase, Src, sequence (P12931 whole entry, looked up): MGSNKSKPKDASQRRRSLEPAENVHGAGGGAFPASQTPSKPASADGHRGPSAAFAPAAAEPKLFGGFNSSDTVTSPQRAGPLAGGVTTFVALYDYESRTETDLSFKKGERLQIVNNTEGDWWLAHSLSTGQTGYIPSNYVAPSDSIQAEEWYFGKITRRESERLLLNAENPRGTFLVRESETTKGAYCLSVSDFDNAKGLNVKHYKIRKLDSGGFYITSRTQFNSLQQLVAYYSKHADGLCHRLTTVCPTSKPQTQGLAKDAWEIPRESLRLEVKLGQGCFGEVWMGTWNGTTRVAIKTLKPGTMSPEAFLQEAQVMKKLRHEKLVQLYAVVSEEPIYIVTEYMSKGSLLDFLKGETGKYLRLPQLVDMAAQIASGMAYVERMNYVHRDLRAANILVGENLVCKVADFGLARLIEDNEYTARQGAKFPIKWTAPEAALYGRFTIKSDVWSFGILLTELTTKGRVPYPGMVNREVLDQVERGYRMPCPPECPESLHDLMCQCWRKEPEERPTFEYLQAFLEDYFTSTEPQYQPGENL
Angiotensin AT2, sequence (P50052 whole entry): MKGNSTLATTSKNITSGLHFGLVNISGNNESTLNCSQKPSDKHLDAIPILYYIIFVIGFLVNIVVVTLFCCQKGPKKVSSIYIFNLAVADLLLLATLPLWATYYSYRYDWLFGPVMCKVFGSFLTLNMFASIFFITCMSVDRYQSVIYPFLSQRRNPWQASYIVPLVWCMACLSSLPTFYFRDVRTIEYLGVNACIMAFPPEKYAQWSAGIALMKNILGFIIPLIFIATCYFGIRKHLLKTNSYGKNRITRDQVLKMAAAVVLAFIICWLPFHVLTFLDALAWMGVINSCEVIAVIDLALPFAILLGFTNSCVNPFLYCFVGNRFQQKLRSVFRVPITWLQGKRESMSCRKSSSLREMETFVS
Glucocorticoid, sequence (P04150 whole entry): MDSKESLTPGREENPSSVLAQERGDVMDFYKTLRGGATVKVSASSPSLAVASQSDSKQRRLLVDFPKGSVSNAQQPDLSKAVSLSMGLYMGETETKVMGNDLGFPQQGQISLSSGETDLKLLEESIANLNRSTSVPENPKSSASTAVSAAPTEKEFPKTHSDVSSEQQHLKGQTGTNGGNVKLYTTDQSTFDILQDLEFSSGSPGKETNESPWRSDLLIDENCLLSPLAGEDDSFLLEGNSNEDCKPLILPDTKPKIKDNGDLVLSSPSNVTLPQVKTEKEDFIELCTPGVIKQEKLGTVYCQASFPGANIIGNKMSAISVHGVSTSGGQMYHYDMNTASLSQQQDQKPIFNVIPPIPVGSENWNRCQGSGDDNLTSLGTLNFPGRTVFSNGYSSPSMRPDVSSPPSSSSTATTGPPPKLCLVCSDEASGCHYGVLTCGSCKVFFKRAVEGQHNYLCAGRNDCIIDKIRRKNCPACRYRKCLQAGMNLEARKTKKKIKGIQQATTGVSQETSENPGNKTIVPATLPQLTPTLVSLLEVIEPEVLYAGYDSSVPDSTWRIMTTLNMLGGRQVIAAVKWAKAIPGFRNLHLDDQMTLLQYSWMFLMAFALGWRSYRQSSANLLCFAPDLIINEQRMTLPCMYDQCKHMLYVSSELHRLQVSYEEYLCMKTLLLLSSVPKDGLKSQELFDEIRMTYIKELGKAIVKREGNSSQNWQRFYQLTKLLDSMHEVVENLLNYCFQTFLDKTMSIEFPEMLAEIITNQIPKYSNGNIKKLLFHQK
Sigma σ2, sequence (Q5BJF2 whole entry): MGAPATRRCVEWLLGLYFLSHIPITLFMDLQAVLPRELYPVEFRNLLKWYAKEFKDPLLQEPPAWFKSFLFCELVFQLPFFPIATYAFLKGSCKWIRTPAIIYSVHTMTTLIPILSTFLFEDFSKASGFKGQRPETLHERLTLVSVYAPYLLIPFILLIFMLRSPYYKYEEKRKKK

SMILES: C[C@]12CC[C@H](CC(=O)O)CC1C(O)CC1C2CC[C@]2(C)C(=O)CCC12 (stereo in doubt) [CVie216-salt, 2-(6beta-hydroxy-17-oxoandrostane-3-yl) acetic acid]
- inhibition at 10 µM [1]: -4%
- inhibition at 10 µM [2]: 1%
- inhibition at 10 µM [3]: -2%
- inhibition at 10 µM [4]: 7%
- inhibition at 10 µM [5]: 7%
- % inhib [6]: −25%
- inhibition at 10 µM [7]: 13%
- inhibition at 10 µM [8]: 2%
- inhibition at 10 µM [9]: -1%
- inhibition at 10 µM [10]: -1%
- inhibition at 10 µM [11]: 6%
- inhibition at 10 µM [12]: -2%
- inhibition at 10 µM [13]: 2%
- inhibition at 10 µM [14]: -6%
- inhibition at 10 µM [15]: -3%
- inhibition at 10 µM [16]: -6%
- % inhib [17]: −20%
- inhibition at 10 µM [18]: 13%
- inhibition at 10 µM [19]: -4%
- inhibition at 10 µM [20]: 0%
- inhibition at 10 µM [21]: -3%
- inhibition at 10 µM [22]: -6%
- % inhib [23]: 1%
- inhibition at 10 µM [24]: -9%
- % inhib [25]: −7%
- inhibition at 10 µM [26]: 12%
- inhibition at 10 µM [27]: 4%
- inhibition at 10 µM [28]: -20%
- inhibition at 10 µM [29]: -6%
- inhibition at 10 µM [30]: 0%
- inhibition at 10 µM [31]: -3%
- % inhib [32]: −7%
- inhibition at 10 µM [33]: -11%
- inhibition at 10 µM [34]: 0%
- inhibition at 10 µM [35]: -10%
- inhibition at 10 µM [36]: 4%
- inhibition at 10 µM [37]: 2%
- % inhib [38]: −5%
- bioavailability [39]: 16.9%
- inhibition at 10 µM [40]: 0%
